Publication PMC4433323, “Structural and Kinetic Characterization of Thymidine Kinase from Leishmania major” (PLoS Neglected Tropical Diseases, 2015)
Values joined by “and” are separate entries in the source; they are usually repeats but may differ in a detail not shown here. Equal values may be shown once. Read-outs that look alike come from different tables or passages of the source. Marks after values point to notes of the source that are not given here.

Columns and labels:
LmTK [1] = biological target: T1, LmTK (Leishmania major, UniProt Q4QC75); test: TK activity, enzyme coupled spectrophotometric assay (substrate kinetics); type: biochemical; conditions: for kcat / Vmax / Km: recombinant full-length LmTK; for Vmax / Km: 25°C, pH 7.4; for Activity measurements at 10 mM substrate concentration (Vmax) / rate of phosphorylation by LmTK, fold lower than the Vmax value exhibited by TbTK: 10 mM substrate
Experimental: (§1) TK activity was measured spectrophotometrically using an enzyme coupled assay in buffer containing 50 mM Tris-HCl pH 7.4, 5 mM MgCl2, 50 mM KCl, 1 mM DTT, 0.5 mM ATP, 0.5 mM phosphoenolpyruvate (PEP), 0.2 mM NADH, 0.2 mM thymidine (dThd), 2 U pyruvate kinase (PK), 4 U lactate dehydrogenase (LDH) and variable amounts of enzyme. The reaction rate (AU/min) was registered as a decrease in absorbance at 340nm (NADH extinction coefficient) at 25°C at pH 7.4 using a multicell Hewlett-Packard 8452 diode array UV-VIS spectrophotometer. Diluted stocks of frozen full-length LmTK were freshly prepared in assay buffer before the measurements. […]

hTK1 [2] = tested on: hTK1; design: method as in Munch-Peterson et al. [43]; conditions: 37°C; ref Munch-Peterson et al. [43]; cited from earlier work
LmTK [3] = biological target: T1, LmTK; test: TK activity, enzyme coupled spectrophotometric assay (substrate kinetics); type: biochemical; conditions: saturating dThd (25 μM)
[4] = tested on: Leishmania intracellular amastigote; design: method as in PMID 20922414; conditions: cited from earlier work
LmTK [5] = biological target: T1, LmTK; test: Inhibition assay of LmTK activity; type: biochemical; conditions: for IC50: 22.3 nM LmTK, pH 7.4
Experimental: TK activity was measured spectrophotometrically using an enzyme coupled assay in buffer containing 50 mM Tris-HCl pH 7.4, 5 mM MgCl2, 50 mM KCl, 1 mM DTT, 0.5 mM ATP, 0.5 mM phosphoenolpyruvate (PEP), 0.2 mM NADH, 0.2 mM thymidine (dThd), 2 U pyruvate kinase (PK), 4 U lactate dehydrogenase (LDH) and variable amounts of enzyme. The reaction rate (AU/min) was registered as a decrease in absorbance at 340nm (NADH extinction coefficient) at 25°C at pH 7.4 using a multicell Hewlett-Packard 8452 diode array UV-VIS spectrophotometer. Diluted stocks of frozen full-length LmTK were freshly prepared in assay buffer before the measurements.
The method consists in determining experimental values for the initial velocities, v, as described above, at increasing inhibitor concentrations, added before initiating the reaction. LmTK and dThd concentrations were 22.3 nM and 25 μM respectively. The concentration of inhibitor that inhibits the activity by 50% (IC50) was calculated.

hTK1 [6] = biological target: hTK1; design: method as in PMID 3457791; conditions: cited from earlier work
TK from rat liver = tested on: TK from rat liver; design: method as in PMID 4539354; conditions: similar conditions (equimolar dTTP and dThd); cited from earlier work
LmTK [7] = biological target: T1, LmTK; test: Inhibition assay of LmTK activity; type: biochemical
[8] = substrate: Cc1cn([C@H]2C[C@H](O)[C@@H](CO)O2)c(=O)[nH]c1=O; test: TK activity, enzyme coupled spectrophotometric assay (substrate kinetics); type: biochemical, Leishmania major; conditions: other: recombinant full-length LmTK, 25°C, pH 7.4
Experimental: as §1

[9] = biological target: the molecule itself; test: AUC; sedimentation velocity, unliganded C-terminally His-tagged LmTK (dTTP dialysed away), 0.15 and 0.45 mg/mL, SEC buffer (10 mM Tris pH 8.0, 200 mM NaCl, 1 mM DTT), 42 000 rpm, 20°C; c(s) analysis with SEDFIT
[10] = biological target: the molecule itself; test: crystal structure; LmTK-dThd (with phosphate), 1.4 M Na/K PO4 pH 5.4, 1 mM dThd, 1 mM AppNHp, 3 mM MgCl2; space group P6(5)22, 2 protomers per asymmetric unit, 2.74 Å

O=c1[nH]c(=O)n([C@H]2C[C@H](O)[C@@H](CO)O2)cc1Br [5Br-2’dU]
kcat (LmTK [1]): 3.47 s⁻¹
Vmax (LmTK [1]): 6.17 ± 0.19 µmol/min/mg
Km (LmTK [1]; read-out: KM): 2 µM and 2.05 µM

O=c1[nH]c(=O)n([C@H]2C[C@H](O)[C@@H](CO)O2)cc1CO [5CH2OH-2’dU]
phosphorylation by LmTK (in words) (LmTK [1]): also phosphorylated
kcat (LmTK [1]): 2.82 s⁻¹
Vmax (LmTK [1]): 5.01 ± 1.30 µmol/min/mg
Km (LmTK [1]; read-out: KM): 96.7 ± 23.1 µM

O=c1[nH]c(=O)n([C@H]2C[C@H](O)[C@@H](CO)O2)cc1F [5F-2’dU]
kcat (LmTK [1]): 4.66 s⁻¹
Vmax (LmTK [1]): 8.29 ± 1.12 µmol/min/mg
Km (LmTK [1]; read-out: KM): 5.7 µM and 5.72 µM
Km (hTK1 [2]): 2.2 µM
Vmax (hTK1 [2]): 8.99 µmol/min/mg
kcat (hTK1 [2]): 3.84 s⁻¹

C[C@H]1O[C@@H](n2cc(F)c(=O)[nH]c2=O)[C@H](O)[C@@H]1O [5F-5’dU]
phosphorylation by LmTK (in words) (LmTK [1]): is not
Activity measurements at 10 mM substrate concentration (Vmax) (LmTK [1]): 0.00 ^a μmol∙min^-1∙mg^-1

Nc1ncnc2c1ncn2[C@@H]1O[C@H](COP(=O)(O)OP(=O)(O)OP(=O)(O)O)[C@@H](O)[C@H]1O [ATP]
Hill coefficient (positive cooperativity) (LmTK [3]): 1.6
K0.5 (LmTK [3]; fit to Hill equation): 58.6 ± 2.4 µM

Cc1cn([C@H]2C[C@H](N=[N+]=[N-])[C@@H](CO)O2)c(=O)[nH]c1=O [AZT, 3’-azido-3’-deoxythymidine]
kcat (LmTK [1]): 1.97 s⁻¹
Km (LmTK [1]): 3 µM and 3.04 µM
Vmax (LmTK [1]): 3.52 ± 0.56 µmol/min/mg
Km (hTK1 [2]): 0.6 µM
Vmax (hTK1 [2]): 4.96 µmol/min/mg
kcat (hTK1 [2]): 2.12 s⁻¹
Leishmania intracellular amastigote growth (in words) [4]: inhibit Leishmania intracellular amastigote growth

Nc1ncnc2c1ncn2[C@@H]1O[C@H](CO)[C@@H](O)[C@H]1O [Ado, adenosine]
inhibition of LmTK (LmTK [5]; tested at 5 mM): no inhibition
Activity measurements at 10 mM substrate concentration (Vmax) (LmTK [1]): 0.00 ^a μmol∙min^-1∙mg^-1

Cc1cn([C@H]2C[C@H](O)[C@@H](COP(=O)(O)OP(=O)(O)OP(=O)(O)OP(=O)(O)OP(=O)(O)OC[C@H]3O[C@@H](n4cnc5c(N)ncnc54)[C@H](O)[C@@H]3O)O2)c(=O)[nH]c1=O [Ap5dT, P1-(5-adenosyl)-P5-(5-thymidyl) pentaphosphate]
IC50 (LmTK [5]; 25 μM dThd, 0.5 mM ATP): 1.1 µM
Ki (hTK1 [6]): 0.12 µM

Nc1ccn([C@@H]2O[C@H](CO)[C@@H](O)[C@H]2O)c(=O)n1 [Cyd]
Activity measurements at 10 mM substrate concentration (Vmax) (LmTK [1]): 0.00 ^a μmol∙min^-1∙mg^-1

Nc1nc2c(ncn2[C@@H]2O[C@H](CO)[C@@H](O)[C@H]2O)c(=O)[nH]1 [Guo]
Activity measurements at 10 mM substrate concentration (Vmax) (LmTK [1]): 0.00 ^a μmol∙min^-1∙mg^-1

O=c1ccn([C@@H]2O[C@H](CO)[C@@H](O)[C@H]2O)c(=O)[nH]1 [Urd]
kcat (LmTK [1]): 0.44 s⁻¹
Vmax (LmTK [1]): 0.79 ± 0.12 µmol/min/mg
Km (LmTK [1]; read-out: KM): 1460 ± 158 µM

Nc1ncnc2c1ncn2C1CC(O)C(CO)O1 (stereo not drawn) [dAdo]
Activity measurements at 10 mM substrate concentration (Vmax) (LmTK [1]): 0.01 ^a μmol∙min^-1∙mg^-1
rate of phosphorylation by LmTK, fold lower than the Vmax value exhibited by TbTK (LmTK [1]): 6 fold

Nc1ccn([C@H]2C[C@H](O)[C@@H](COP(=O)(O)OP(=O)(O)OP(=O)(O)O)O2)c(=O)n1 [dCTP]
IC50 (LmTK [5]; 25 μM dThd, 0.5 mM ATP): 1250 µM

Nc1ccn([C@H]2C[C@H](O)[C@@H](CO)O2)c(=O)n1 [dCyd]
Activity measurements at 10 mM substrate concentration (Vmax) (LmTK [1]): 0.07 ^a μmol∙min^-1∙mg^-1

Nc1nc2c(ncn2[C@H]2C[C@H](O)[C@@H](COP(=O)(O)OP(=O)(O)OP(=O)(O)O)O2)c(=O)[nH]1 [dGTP]
IC50 (LmTK [5]; 25 μM dThd, 0.5 mM ATP): 549 µM

Nc1nc2c(ncn2[C@H]2C[C@H](O)[C@@H](CO)O2)c(=O)[nH]1 [dGuo]
Activity measurements at 10 mM substrate concentration (Vmax) (LmTK [1]): 0.04 ^a μmol∙min^-1∙mg^-1
rate of phosphorylation by LmTK, fold lower than the Vmax value exhibited by TbTK (LmTK [1]): 10 fold

O=c1[nH]cnc2c1ncn2[C@H]1C[C@H](O)[C@@H](CO)O1 [dIno]
Activity measurements at 10 mM substrate concentration (Vmax) (LmTK [1]): 0.04 ^a μmol∙min^-1∙mg^-1
rate of phosphorylation by LmTK, fold lower than the Vmax value exhibited by TbTK (LmTK [1]): 23 fold

Cc1cn([C@H]2C[C@H](O)[C@@H](COP(=O)(O)O)O2)c(=O)[nH]c1=O [dTMP, thymidine monophosphate]
IC50 (LmTK [5]; 25 μM dThd, 0.5 mM ATP): 165 µM

Cc1cn([C@H]2C[C@H](O)[C@@H](COP(=O)(O)OP(=O)(O)OP(=O)(O)O)O2)c(=O)[nH]c1=O [dTTP, 2'-deoxythymidine triphosphate]
inhibition (TK from rat liver): 87%
fold increase in the K0.5 value for ATP compared to absence of dTTP (LmTK [7]; 3.5 μM dTTP, ATP 50–500 μM, 25 μM dThd): 5 fold
enzyme inhibition (LmTK [7]; 0.2 mM dTTP, equimolar 0.2 mM dThd, 0.5 mM ATP): 98%
Hill coefficient (h) of inhibition (LmTK [5]; 25 μM dThd, 0.5 mM ATP): 1.6
IC50 (LmTK [5]; 25 μM dThd, 0.5 mM ATP): 3.8 ± 0.07 µM

Cc1cn([C@H]2C[C@H](O)[C@@H](CO)O2)c(=O)[nH]c1=O [dThd, 2’-deoxythymidine]
KM fold lower than that reported for TbTK (LmTK [1]; comparison with TbTK ref 35): ~ 7 fold

O=c1ccn([C@H]2C[C@H](O)[C@@H](COP(=O)(O)OP(=O)(O)OP(=O)(O)O)O2)c(=O)[nH]1 [dUTP]
IC50 (LmTK [5]; 25 μM dThd, 0.5 mM ATP): 187 µM

O=c1ccn([C@H]2C[C@H](O)[C@@H](CO)O2)c(=O)[nH]1 [dUrd]
KM fold higher than that for dThd (LmTK [1]): approximately 10 fold
kcat (LmTK [1]): 3.06 s⁻¹
Vmax (LmTK [1]): 5.45 ± 0.77 µmol/min/mg
Km (LmTK [1]; read-out: KM): 11.1 ± 2.7 µM
Km (hTK1 [2]): 9 µM
Vmax (hTK1 [2]): 11.87 µmol/min/mg
kcat (hTK1 [2]): 5.07 s⁻¹

B1: LmTK (Leishmania major) (protein)
chain: FRGRIELIIGPMFAGKTTELMRRVKREIHARRSCFVIKYSKDTRYDEHNVASHDQLMLRAQAAVSQLTEVRDTWKRFDVLAIDEGQFFSDLVDFCNTAADAGKVVMVSALDGDYRRKPFGQICELVPYCEAVDKLTAVCMMCHEQPACFTRRTVNVEQQELIGGADMYIATCRECYSKQQLPSIEEMRTQRMAIKEVEKRYLGLSDKRATASPQTPEKPAGGWCTKAGVATLPTMVKEGAASSGASAGMKSGRGLCEMQAFTTETPKYQRVEPACTASAASSE
Km [8]: 1.10 ± 0.33 µM
Vmax [8]: 4.66 µmol/min/mg
kcat [8]: 2.62 s⁻¹
kcat/Km [8]: 2.38e+06 M⁻¹ s⁻¹

B2: C-terminally His-tagged truncated L. major thymidine kinase (LmTK), amino acids 2-185 (enzyme, L. major strain Friedlin, UniProt Q4QC75 2-185, looked up)
chain: FRGRIELIIGPMFAGKTTELMRRVKREIHARRSCFVIKYSKDTRYDEHNVASHDQLMLRAQAAVSQLTEVRDTWKRFDVLAIDEGQFFSDLVDFCNTAADAGKVVMVSALDGDYRRKPFGQICELVPYCEAVDKLTAVCMMCHEQPACFTRRTVNVEQQELIGGADMYIATCRECYSKQQLPSI
notes: Thymidine kinase of Leishmania major strain Friedlin (GeneDB LmjF.21.1210), C-terminally truncated version spanning amino acids 2-185; Non-cleavable C-terminal His tag; Stabilised with dTTP/MgCl2 or dThd/AppNHp/MgCl2; also called C-terminal histagged LmTK; LmTK-dTTP; source: Sf9 insect cells (baculovirus), purified (HisTrap, Superdex 200 SEC); not shown: His6, C-terminal, kept
stoichiometry N [9]: 4

B3: Truncated L. major thymidine kinase (LmTK), amino acids 2-185, as crystallised with dThd/AppNHp and with AP5dT (enzyme, L. major strain Friedlin, UniProt Q4QC75 2-185, looked up)
chain: B2 chain
notes: Thymidine kinase of Leishmania major strain Friedlin (GeneDB LmjF.21.1210), C-terminally truncated version spanning amino acids 2-185; both preparations (each with dThd, AppNHp, MgCl2) were used for crystallization screening; also called LmTK-dThd; LmTK-dThd-AppNHp; source: Sf9 insect cells (baculovirus), purified (HisTrap, Superdex 200 SEC)
stoichiometry N [10]: 4
